# Reference: the supplement of paper PMC11208160
# Test: recombinant UMI read abundance after kanamycin selection (control-corrected) (log10(CPM+1)); higher = more efficient recombination; extreme values may be limits of the assay; sequences stand for … in AGTGCAGAGAAAATCGGCCAGTTTTCTCTGCCTGCAGTCCGCATGCCGTGGGACCCCTTGGGTTCTAACCTGTTGCCTAGATTTATGCAGCGGACTGCCTTTCTCCCAAAGTGATAAACCGG…AGGTTGGTTTCACT; site = the 11-nt donor
# Method: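 Pooled E. coli donor-specificity screen for the IS621 bridge recombinase. Each library member carries a reprogrammed 11-nt donor and a full-length LE bridge RNA expressed in cis from the natural promoter, with a paired donor-binding loop (8-nt LDG + 4-nt RDG) and a target-binding loop fixed to T5. It is co-electroporated with a T5 target plasmid; recombinase is induced with 0.07 mM IPTG and recombinants are selected on kanamycin. UMIs are counted as CPM, averaged over two biological replicates and corrected by the unselected control. Molecule = full bridge RNA written as DNA, built from the T5 scaffold: LDG = donor specificity nt 1-8, RDG = reverse complement of nt 8-11.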
# 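Also: IS621 bridge recombinase in Escherichia coli cells against a fixed T5 target plasmid.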
row,Sequence,recombinant UMI read abundance (log10)
1,AAGTGTACATGGACCGGTTTTCCCGGTAATCCGTATTTGTG (site AAGTGTACTCA),0.962
2,AATAAACCATGGACCGGTTTTCCCGGTAATCCGTATTTGCC (site AATAAACCTGG),0
3,AATAAACCATGGACCGGTTTTCCCGGTAATCCGTATTTGTG (site AATAAACCTCA),0.00291
4,AATAATTCATGGACCGGTTTTCCCGGTAATCCGTATTTGAT (site AATAATTCTAT),0.955
5,AATAGCACATGGACCGGTTTTCCCGGTAATCCGTATTTGGC (site AATAGCACTGC),2.04
6,AATATGTCATGGACCGGTTTTCCCGGTAATCCGTATTTGAC (site AATATGTCTGT),0.953
7,AATATGTCATGGACCGGTTTTCCCGGTAATCCGTATTTGAC (site AATCTGTCTGT),0
8,AATATGTCATGGACCGGTTTTCCCGGTAATCCGTATTTGAC (site AATGTGTCTGT),0
9,AATATGTCATGGACCGGTTTTCCCGGTAATCCGTATTTGAC (site AATTTGTCTGT),0
10,AATCCCACATGGACCGGTTTTCCCGGTAATCCGTATTTGCT (site AATCCCACTAG),1.77
11,AATCCTCCATGGACCGGTTTTCCCGGTAATCCGTATTTGAT (site AATCCTCCTAT),0.344
12,AATCGAGCATGGACCGGTTTTCCCGGTAATCCGTATTTGGA (site AATCGAGCTTC),0.474
13,AATCTAACATGGACCGGTTTTCCCGGTAATCCGTATTTGCT (site AATATAACTAG),0
14,AATCTAACATGGACCGGTTTTCCCGGTAATCCGTATTTGCT (site AATCTAACTAG),0
15,AATCTAACATGGACCGGTTTTCCCGGTAATCCGTATTTGCT (site AATGTAACTAG),0.245
16,AATCTAACATGGACCGGTTTTCCCGGTAATCCGTATTTGCT (site AATTTAACTAG),0
17,AATCTGTCATGGACCGGTTTTCCCGGTAATCCGTATTTGAC (site AATATGTCTGT),0
18,AATCTGTCATGGACCGGTTTTCCCGGTAATCCGTATTTGAC (site AATCTGTCTGT),0
19,AATCTGTCATGGACCGGTTTTCCCGGTAATCCGTATTTGAC (site AATGTGTCTGT),0.00511
20,AATCTGTCATGGACCGGTTTTCCCGGTAATCCGTATTTGAC (site AATTTGTCTGT),0
21,AATGAAACATGGACCGGTTTTCCCGGTAATCCGTATTTGCT (site AATGAAACTAG),1.94
22,AATGAAACATGGACCGGTTTTCCCGGTAATCCGTATTTGCT (site AATGCAACTAG),0.479

row,Sequence,recombinant UMI read abundance (log10)
1,AATGAAACATGGACCGGTTTTCCCGGTAATCCGTATTTGCT (site AATGGAACTAG),0
2,AATGAAACATGGACCGGTTTTCCCGGTAATCCGTATTTGCT (site AATGTAACTAG),1.65
3,AATGAAGCATGGACCGGTTTTCCCGGTAATCCGTATTTGTC (site AATGAAGCTGA),2.09
4,AATGGATCATGGACCGGTTTTCCCGGTAATCCGTATTTGAC (site AATGGATCTGT),2.04
5,AATGTAACATGGACCGGTTTTCCCGGTAATCCGTATTTGCT (site AAAGTAACTAG),1.76
6,AATGTAACATGGACCGGTTTTCCCGGTAATCCGTATTTGCT (site AACGTAACTAG),2.22
7,AATGTAACATGGACCGGTTTTCCCGGTAATCCGTATTTGCT (site AAGGTAACTAG),1.84
8,AATGTAACATGGACCGGTTTTCCCGGTAATCCGTATTTGCT (site AATATAACTAG),2.07
9,AATGTAACATGGACCGGTTTTCCCGGTAATCCGTATTTGCT (site AATCTAACTAG),0.276
10,AATGTAACATGGACCGGTTTTCCCGGTAATCCGTATTTGCT (site AATGAAACTAG),0.0158
11,AATGTAACATGGACCGGTTTTCCCGGTAATCCGTATTTGCT (site AATGCAACTAG),0.239
12,AATGTAACATGGACCGGTTTTCCCGGTAATCCGTATTTGCT (site AATGGAACTAG),0
13,AATGTAACATGGACCGGTTTTCCCGGTAATCCGTATTTGCT (site AATGTAACTAA),0.0161
14,AATGTAACATGGACCGGTTTTCCCGGTAATCCGTATTTGCT (site AATGTAACTAC),0.00758
15,AATGTAACATGGACCGGTTTTCCCGGTAATCCGTATTTGCT (site AATGTAACTAG),2.26
16,AATGTAACATGGACCGGTTTTCCCGGTAATCCGTATTTGCT (site AATGTAACTAT),0.0618
17,AATGTAACATGGACCGGTTTTCCCGGTAATCCGTATTTGCT (site AATGTAACTCG),0.0789
18,AATGTAACATGGACCGGTTTTCCCGGTAATCCGTATTTGCT (site AATGTAACTGG),1.14
19,AATGTAACATGGACCGGTTTTCCCGGTAATCCGTATTTGCT (site AATGTAACTTG),0.00409
20,AATGTAACATGGACCGGTTTTCCCGGTAATCCGTATTTGCT (site AATGTACCTAG),0
21,AATGTAACATGGACCGGTTTTCCCGGTAATCCGTATTTGCT (site AATGTAGCTAG),0.332
22,AATGTAACATGGACCGGTTTTCCCGGTAATCCGTATTTGCT (site AATGTATCTAG),1.67

row,Sequence,recombinant UMI read abundance (log10)
1,AATGTAACATGGACCGGTTTTCCCGGTAATCCGTATTTGCT (site AATGTCACTAG),0.198
2,AATGTAACATGGACCGGTTTTCCCGGTAATCCGTATTTGCT (site AATGTGACTAG),0.422
3,AATGTAACATGGACCGGTTTTCCCGGTAATCCGTATTTGCT (site AATGTTACTAG),1.14
4,AATGTAACATGGACCGGTTTTCCCGGTAATCCGTATTTGCT (site AATTTAACTAG),0.682
5,AATGTAACATGGACCGGTTTTCCCGGTAATCCGTATTTGCT (site ACTGTAACTAG),1.84
6,AATGTAACATGGACCGGTTTTCCCGGTAATCCGTATTTGCT (site AGTGTAACTAG),1.51
7,AATGTAACATGGACCGGTTTTCCCGGTAATCCGTATTTGCT (site ATTGTAACTAG),2.07
8,AATGTAACATGGACCGGTTTTCCCGGTAATCCGTATTTGCT (site CATGTAACTAG),2.37
9,AATGTAACATGGACCGGTTTTCCCGGTAATCCGTATTTGCT (site GATGTAACTAG),1.57
10,AATGTAACATGGACCGGTTTTCCCGGTAATCCGTATTTGCT (site TATGTAACTAG),2.39
11,AATGTGACATGGACCGGTTTTCCCGGTAATCCGTATTTGCT (site AATGTAACTAG),2.04
12,AATGTGACATGGACCGGTTTTCCCGGTAATCCGTATTTGCT (site AATGTCACTAG),0.731
13,AATGTGACATGGACCGGTTTTCCCGGTAATCCGTATTTGCT (site AATGTGACTAG),2.65
14,AATGTGACATGGACCGGTTTTCCCGGTAATCCGTATTTGCT (site AATGTTACTAG),0.751
15,AATGTGTCATGGACCGGTTTTCCCGGTAATCCGTATTTGAA (site AATGTGTCTAT),0.324
16,AATGTGTCATGGACCGGTTTTCCCGGTAATCCGTATTTGAA (site AATGTGTCTCT),0.204
17,AATGTGTCATGGACCGGTTTTCCCGGTAATCCGTATTTGAA (site AATGTGTCTGT),0
18,AATGTGTCATGGACCGGTTTTCCCGGTAATCCGTATTTGAA (site AATGTGTCTTT),2.11
19,AATGTGTCATGGACCGGTTTTCCCGGTAATCCGTATTTGAC (site AAAGTGTCTGT),0
20,AATGTGTCATGGACCGGTTTTCCCGGTAATCCGTATTTGAC (site AACGTGTCTGT),0
21,AATGTGTCATGGACCGGTTTTCCCGGTAATCCGTATTTGAC (site AAGGTGTCTGT),1.02
